We go through 11 compounds from US6169181A, “Compounds useful to treat retroviral infections” (Pharmacia & Upjohn Company, priority 1998, dated 2001).

Where “and” joins values, the source holds several entries; their conditions need not be identical. Equal entries are not always repeated. Where two headings read alike, the source gives them in different places.

The target in test [1] is T1, HIV-1 protease (Human immunodeficiency virus type 1 group M subtype B, UniProt P04585). Kind of test: biochemical. As to conditions: for inhibition at 0.123 µM / inhibition at 0.37 µM / inhibition at 1.1 µM / inhibition at 3.3 µM / inhibition at 10 µM / inhibition at 30 µM: read-out: Protease % Inhib. In outline:
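A substrate biotinylated at the N-terminal arginine and FITC-labelled at the C-terminal lysine was incubated with HIV-1 protease (10 μl of 0.1 μM) and compound for 1 h in the dark at room temperature. Buffer was 0.1 M sodium acetate pH 5.5, 1.0 M NaCl, 0.05% NP-40. Labelled product was separated from substrate using streptavidin beads and filtration, and the fluorescence gave percent inhibition.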

Test [2] has as its target T1, HIV-1 protease. In words: biochemical. In outline: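 Biotinylated, FITC-labelled peptide substrate cleaved in 0.1 M sodium acetate pH 5.5, 1.0 M NaCl, 0.05% NP-40, room temperature. Filtered labelled product read by fluorescence; nonlinear least-squares fit.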
Where [3] appears, read: Table I, read-out: HIV Protease FITC Assay Ki.
Setting [4] is: Table II, enzyme HIV-1, DOSE 0.123 (unit not given).
The mark [5] stands for this setting: Table II, enzyme HIV-1, DOSE 0.370 (unit not given).
The mark [6] stands for this setting: Table II, enzyme HIV-1, DOSE 1.100 (unit not given).
Setting [7] is: Table II, enzyme HIV-1, DOSE 3.300 (unit not given).
Setting [8] is: Table II, enzyme HIV-1, DOSE 10.000 (unit not given).
Where [9] appears, read: Table II, enzyme HIV-1, DOSE 30.000 (unit not given).
The mark [10] stands for this setting: Table II, enzyme HIV-1, read-out: FITC KI.

Turning to `CCCC1(CCC)CC(O)=C(C(c2cccc(NS(=O)(=O)c3ccc(F)cc3)c2)C2CC2)C(=O)O1` (centres unmarked) [Example 51, 4-Fluoro-N-[3-[1-(4-hydroxy-2-oxo-6,6-dipropyl-5,6-dihydro-2H-pyran-3-yl)-cyclopropylmethyl]-phenyl]-benzenesulfonamide], in test [1] (Table I, Dose 0.123 μM), the inhibition at 0.123 µM was 98.7%. Also, in test [1] (Table I, Dose 0.370 μM), the inhibition at 0.37 µM turned out to be 104%. Besides, the inhibition at 1.1 µM in test [1] (Table I, Dose 1.100 μM) turned out to be 105%. The inhibition at 3.3 µM in test [1] (Table I, Dose 3.300 μM) was 101%. For the same compound, the inhibition at 10 µM in test [1] (Table I, Dose 10.000 μM) is 95.1%. The inhibition at 30 µM in test [1] (Table I, Dose 30.000 μM) is 79.7%. For the same compound, in test [2] (setting [3]), the Ki (commonly a measure of affinity in units of concentration, obtained from inhibition or displacement) is 2.66 nM.
In the case of `COc1ccc2c(O)c(C(c3cccc(NS(=O)(=O)c4cn(C)cn4)c3)C3CC3)c(=O)oc2c1` (centres unmarked) [Example 152, N-(3-{Cyclopropyl-[7-methoxy-4-hydroxycoumarin-3-yl]-methyl}-phenyl)-1-methyl-1H-imidazole-4-sulfonamide], in test [1], the inhibition at 0.123 µM came out at 11.5%, the inhibition at 0.37 µM was determined as 80.2%, the inhibition at 1.1 µM is 95.8% and the inhibition at 3.3 µM worked out at 94.4%. Moreover, in test [1], the inhibition at 10 µM was found to be 95.5% and the inhibition at 30 µM stood at 96.5%. The inhibition constant (Ki) in test [2] (HIV Protease FITC Assay Ki) came to 0.71 nM.
As for `CCC(CCOCCOC)c1cc(O)c(C(c2cccc(NS(=O)(=O)c3ccc(C#N)cc3)c2)C2CC2)c(=O)o1` (centres unmarked) [Example 106, 4-Cyano-N-(3-{cyclopropyl-[6-(1-ethyl-3-{2-methoxy-ethoxy}-propyl)-4-hydroxy-2-oxo-2H-pyran-3-yl]-methyl}-phenyl)-benzenesulfonamide], in test [1] (Table I, Dose 0.123 μM), the inhibition at 0.123 µM was found to be 60.9%. The inhibition at 0.37 µM in test [1] (Table I, Dose 0.370 μM) stood at 86.6%. For the same compound, the inhibition at 1.1 µM in test [1] (Table I, Dose 1.100 μM) worked out at 93.7%. In addition, in test [1] (Table I, Dose 3.300 μM), the inhibition at 3.3 µM stood at 98.9%. In test [1] (Table I, Dose 10.000 μM), the inhibition at 10 µM worked out at 99%. Moreover, in test [1] (Table I, Dose 30.000 μM), the inhibition at 30 µM came to 106%. Further, the inhibitory constant (Ki) in test [2] (setting [3]) was determined as 3.29 nM.
In the case of `CCCC1(CCC)CC(O)=C(C(CC)c2cccc(NS(=O)(=O)c3cn(C)cn3)c2)C(=O)O1` (single isomer, unassigned) [Example 53, (R or S)-N-[3-[1-(4-hydroxy-2-oxo-6,6-dipropyl-5,6-dihydro-2H-pyran-3-yl)-propyl]-phenyl]-1-methyl-1H-imidazole-4-sulfonamide], the “PROTEASE % INHIB.” value in test [1] (Table I, Dose 0.123 μM) stood at 88.61%; in test [1] (Table I, Dose 0.370 μM), 97.74%; in test [1] (Table I, Dose 1.100 μM), 97.95%. Besides, in test [1] (Table I, Dose 3.300 μM), the inhibition at 3.3 µM is 99.6%. Also, the inhibition at 10 µM in test [1] (Table I, Dose 10.000 μM) amounted to 90.2%. Besides, in test [1] (Table I, Dose 30.000 μM), the inhibition at 30 µM worked out at 84.4%. Further, the Ki in test [2] (setting [3]) stood at 0.9 nM.
Turning to `CCCC1(CCc2ccccc2)CC(O)=C(C(CC)c2cccc(NS(=O)(=O)c3ccc(F)cc3)c2)C(=O)O1` (centres unmarked) [Example 93A, 4-Fluoro-N-[3-[1-(4-hydroxy-2-oxo-6-phenethyl-6-propyl-5,6-dihydro-2H-pyran-3-yl)-propyl]-phenyl]-benzenesulfonamide], in test [1], the inhibition at 0.123 µM amounted to 59.5%, the inhibition at 0.37 µM came to 90.4%, the inhibition at 1.1 µM was 104% and the inhibition at 3.3 µM turned out to be 109%. In test [1], the inhibition at 10 µM came to 109% and the inhibition at 30 µM came to 96.6%. The Ki in test [2] (read-out: HIV Protease FITC Assay Ki) is 6.06 nM.
With `CCCC1(CCc2ccc(F)cc2)CC(O)=C(C(c2cccc(NS(=O)(=O)c3cccc4cccnc34)c2)C(C)(C)C)C(=O)O1` (centres unmarked) [Example 329, N-[3-{1-(4-Hydroxy-5,6-dihydro-2-oxo-6-(2-(4-fluorophenyl)ethyl)-6-propyl-2H-pyran-3-yl)-2,2-dimethylpropyl)phenyl]-8-quinolinesulfonamide], the “PROTEASE % INHIB.” value was 46.4% in test [1] (setting [4]); 88.19% in test [1] (setting [5]); 96.63% in test [1] (setting [6]); 100.32% in test [1] (setting [7]); 97.07% in test [1] (setting [8]); 96.35% in test [1] (setting [9]). For the same compound, the inhibitory constant (Ki) in test [2] (setting [10]) came out at 12 nM.
Consider `CC[C@H](Cc1ccccc1)c1cc(O)c(C(c2cccc(NS(=O)(=O)c3ccccn3)c2)C2CC2)c(=O)o1` (single isomer, unassigned) [Example 142, N-(3-(R or S)-{Cyclopropyl-[6-(1-(R)-ethylphenethyl)-4-hydroxy-2-oxo-2H-pyran-3-yl]-methyl}-phenyl)-2-pyridinesulfonamide], for which the “PROTEASE % INHIB.” value was found to be 78.01% in test [1] (Table I, Dose 0.123 μM); 92.52% in test [1] (Table I, Dose 0.370 μM); 106.64% in test [1] (Table I, Dose 1.100 μM); 105.15% in test [1] (Table I, Dose 3.300 μM); 110.58% in test [1] (Table I, Dose 10.000 μM); 106.77% in test [1] (Table I, Dose 30.000 μM). In addition, in test [2] (setting [3]), the Ki amounted to 1.6 nM.
As to `CCCC1(CCc2ccc(F)cc2)CC(O)=C(C(c2cccc(NS(=O)(=O)c3ccc(C#N)cc3)c2)C(C)(C)C)C(=O)O1` (centres unmarked) [Example 328, N-[3-{1-(4-Hydroxy-5,6-dihydro-2-oxo-6-(2-(4-fluorophenyl)ethyl)-6-propyl-2H-pyran-3-yl)-2,2-dimethylpropyl}phenyl]-4-cyanobenzenesulfonamide], the “PROTEASE % INHIB.” value in test [1] (setting [4]) was 27.81%; in test [1] (setting [5]), 79.47%; in test [1] (setting [6]) it was 95.45%; in test [1] (setting [7]), 96.77%; in test [1] (setting [8]), 96.78%; in test [1] (setting [9]) it was 92.17%. Moreover, the Ki in test [2] (setting [10]) is 22 nM.
With `COCCOCCOCCOc1ccc2c(O)c(C(c3cccc(NS(=O)(=O)c4cn(C)cn4)c3)C3CC3)c(=O)oc2c1` (centres unmarked) [Example 151, N-(3-{Cyclopropyl-[7-(2-(2-(2-methoxyethoxy)-ethoxy)ethoxy)-4-hydroxycoumarin-3-yl]-methyl}-phenyl)-1-methyl-1H-imidazole-4-sulfonamide], in test [1], the inhibition at 0.123 µM came out at 111%, the inhibition at 0.37 µM was found to be 115%, the inhibition at 1.1 µM stood at 118% and the inhibition at 3.3 µM is 119%. In addition, in test [1], the inhibition at 10 µM is 116% and the inhibition at 30 µM amounted to 115%. The inhibitory constant (Ki) in test [2] (HIV Protease FITC Assay Ki) was determined as 0.36 nM.
For `CC[C@H](Cc1ccccc1)c1cc(O)c(C(c2cccc(NS(=O)(=O)c3cn(C)cn3)c2)C2CC2)c(=O)o1` (single isomer, unassigned) [Example 137, N-(3-(R or S)-{Cyclopropyl-[6-(1-(R)-ethylphenethyl)-4-hydroxy-2-oxo-2H-pyran-3-yl]-methyl}-phenyl)-1-methyl-1H-imidazole-4-sulfonamide], the inhibition at 0.123 µM in test [1] (Table I, Dose 0.123 μM) came out at 98.8%. The inhibition at 0.37 µM in test [1] (Table I, Dose 0.370 μM) stood at 91.5%. The inhibition at 1.1 µM in test [1] (Table I, Dose 1.100 μM) worked out at 101%. Further, the inhibition at 3.3 µM in test [1] (Table I, Dose 3.300 μM) came to 110%. Also, the inhibition at 10 µM in test [1] (Table I, Dose 10.000 μM) worked out at 98.2%. For the same compound, the inhibition at 30 µM in test [1] (Table I, Dose 30.000 μM) was determined as 93.8%. The inhibition constant Ki in test [2] (setting [3]) is 0.52 nM and 0.7 nM.
Consider `CCCC1CCCCCc2c1oc(=O)c(C(c1cccc(NS(=O)(=O)c3ccccc3)c1)C1CC1)c2O` (centres unmarked) [Example 1, N-[3-[cyclopropyl(5,6,7,8,9,10-hexahydro-4-hydroxy-2-oxo-10-propyl-2H-cycloocta[b]pyran-3-yl)methyl]phenyl]benzenesulfonamide], for which, in test [1] (Table I, Dose 0.123 μM), the inhibition at 0.123 µM worked out at 75.4%. In addition, in test [1] (Table I, Dose 0.370 μM), the inhibition at 0.37 µM stood at 87.3%. The inhibition at 1.1 µM in test [1] (Table I, Dose 1.100 μM) stood at 97.1%. For the same compound, in test [1] (Table I, Dose 3.300 μM), the inhibition at 3.3 µM came out at 96.8%. Further, the inhibition at 10 µM in test [1] (Table I, Dose 10.000 μM) was found to be 99.7%. Further, the inhibition at 30 µM in test [1] (Table I, Dose 30.000 μM) worked out at 97.4%. Further, the Ki in test [2] (setting [3]) worked out at 15 nM.
